These results are taken from patent publication EP4471048A1, “PEPTIDE INHIBITORS OF INTERLEUKIN-23 RECEPTOR” (Zealand Pharma A/S, priority 2023, dated 2024).

The target of one series is T1, human IL-23R (Homo sapiens, UniProt Q5VWK5).
T1 sequence (Q5VWK5 22-629): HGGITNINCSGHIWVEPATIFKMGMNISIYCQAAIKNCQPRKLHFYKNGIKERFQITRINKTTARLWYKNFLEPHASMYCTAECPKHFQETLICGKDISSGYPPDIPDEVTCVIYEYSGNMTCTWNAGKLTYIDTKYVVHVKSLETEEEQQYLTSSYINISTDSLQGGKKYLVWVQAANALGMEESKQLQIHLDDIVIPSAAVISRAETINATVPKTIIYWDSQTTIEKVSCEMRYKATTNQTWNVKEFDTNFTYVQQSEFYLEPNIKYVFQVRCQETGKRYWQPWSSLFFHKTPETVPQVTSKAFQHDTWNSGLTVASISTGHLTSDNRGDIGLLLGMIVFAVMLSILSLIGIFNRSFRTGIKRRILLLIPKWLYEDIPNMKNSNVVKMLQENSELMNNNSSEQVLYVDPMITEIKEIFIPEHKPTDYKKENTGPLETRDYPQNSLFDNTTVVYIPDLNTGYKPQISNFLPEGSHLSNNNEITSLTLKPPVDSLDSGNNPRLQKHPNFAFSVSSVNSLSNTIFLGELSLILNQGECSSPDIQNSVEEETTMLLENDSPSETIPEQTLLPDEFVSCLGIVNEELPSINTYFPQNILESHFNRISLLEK
Nature of the series: biochemical. As to conditions: for Emax: read-out: % displacement (hIL-23R NIuc). Put shortly:
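BRET displacement of a TAMRA-labelled reference compound from N-terminal Nanoluc-IL-23R fusion protein in membranes from stably transfected HEK293 cells. Incubation 2 h at room temperature, then Nanoluc substrate was added and the TAMRA/Nanoluc ratio read. IC50 and maximal displacement came from 4-parameter logistic fits.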

A short description of series [1]: Peptide stability in simulated intestinal fluid (SIF). The format is in vitro ADME. The conditions noted are these: 37 °C, porcine pancreatin; for remaining at 1 h, 10 µM / remaining at 4 h, 10 µM: pig; for remaining at 1 h, 10 µM: pH 6.8, 1 h; for remaining at 4 h, 10 µM / SIF (% remaining 4 h): pH 6.8, 4 h; for SIF (% remaining 4 h): 10 µM. As to the method: (§1) SGF was prepared by dissolving sodium chloride (0.2 g) in 50 mL of water. A volume of 0.7 mL of 10 M HCl was added to adjust the pH of the solution to 1.2 and the volume made up to 100 mL with water. […] SIF was prepared by dissolving monobasic potassium phosphate (0.68 g) in 50 mL of water and adjusting the pH to 6.8 with 1 M NaOH. The volume was subsequently made up to 100 mL with water. 200 mg porcine pancreatin (P1625, Sigma Aldrich) was gently dissolved into 20 mL preheated (37 °C) solution (10 g/L) immediately prior to the incubation.
(§2) The incubation was performed at 37 °C with gentle shaking. […] After the last timepoint, the sampling plate was mixed for 10 min on a shaking table and centrifuged 10 min at 2200 g. 70 µL resulting supernatant was diluted with 150 µL water, mixed and centrifugated before analysis by liquid chromatography high resolution mass spectrometry. […] Percent remaining at each timepoint was calculated relative to timepoint zero based on absolute peak areas.
Compounds with a SIF stability (after 4 h) above 70% are considered highly SIF stable.

Series [2] is described as follows: Peptide stability in simulated gastric fluid (SGF). The format is in vitro ADME. As to conditions: 37 °C, porcine pepsin; for remaining at 1 h, 10 µM / remaining at 4 h, 10 µM: pig, simulated gastric fluid (SGF) with porcine pepsin (3.2 g/L); for remaining at 1 h, 10 µM: pH 1.2, 1 h, read-out: SGF (% remaining 1 h). The method, then: as §1, §2
Compounds with a SGF stability (after 4 h) above 70% are considered highly SGF stable. […] Table 3-4: SGF data

Setting [3] is: read-out: SIF (% remaining 4 h).
The mark [4] stands for this setting: pH 1.2, 10 µM, pH 1.2, 4 h, read-out: SGF (% remaining 4 h).
[5] abbreviates: SAR tables, % peptide remaining, read-out: SIF (% after 4 h).

Where a SMILES comes first, the peptide text is derived from it. Bridges are numbered along the chain shown (N, C = ends). [ ]: non-standard residue; d: D form. 2Nal = N[C@@H](Cc1ccc2ccccc2c1)C(=O)O; AEF = NCCOc1ccc(C[C@H](N)C(=O)O)cc1; 3Pal = N[C@@H](Cc1cccnc1)C(=O)O; αMeL = CC(C)C[C@](C)(N)C(=O)O; NMeK = CN[C@@H](CCCCN)C(=O)O; Dab = NCC[C@H](N)C(=O)O; βAla = NCCC(=O)O

`CC[C@H](C)[C@@H]1NC(=O)[C@@H]2CCCCNC(=O)CC[C@@H](C(=O)N[C@@H](CCN)C(=O)NCCc3cccnc3)NC(=O)[C@](C)(CC(C)C)NC(=O)[C@H](Cc3ccc4ccccc4c3)NC(=O)[C@H](Cc3ccc(OCCN)cc3)NC(=O)[C@H](CCC(=O)N2)NC(=O)[C@H](CCC(N)=O)NC(=O)[C@H](Cc2c[nH]c3ccccc23)NC(=O)[C@H](C(C)C)NC1=O` [Compound 66, K(1c)(6c)^†IVWQE(6c)[Y(2-aminoethoxy)][2-Nal][2-Me-Leu]E(1c)[Dab]-[NH-2-(pyridin-3-yl)ethyl]] displayed an IC50 at human IL-23R of 0.12 nM. Also, the Emax at human IL-23R stood at 101%. Besides, the remaining at 1 h, 10 µM is 108% in series [1] and 98% in series [2] (pH 1.2, 10 µM). The remaining at 4 h, 10 µM is 112% in series [1] (setting [3]) and 97% in series [2] (setting [4]).
`CC[C@H](C)[C@@H]1NC(=O)[C@@H]2CCCCNC(=O)CC[C@@H](C(=O)NC3(C(=O)N[C@@H](Cc4cccnc4)C(=O)NC)CCNCC3)NC(=O)[C@](C)(CC(C)C)NC(=O)[C@H](Cc3ccc4ccccc4c3)NC(=O)[C@H](Cc3ccc(OCCN)cc3)NC(=O)[C@H](CCC(=O)N2)NC(=O)[C@H](CCC(N)=O)NC(=O)[C@H](Cc2c[nH]c3ccccc23)NC(=O)[C@H](C(C)C)NC1=O` [Compound 62, K(1c)(6c)^†IVWQE(6c)[Y(2-aminoethoxy)][2-Nal][2-Me-Leu]E(1c)[4-Aminopiperidin-4-carbonyl][3-(3-Pyridyl)-Ala]-[NHMe]] gave an IC50 against human IL-23R of 0.072 nM. In addition, the Emax at human IL-23R came to 99%. For the same compound, the remaining at 1 h, 10 µM was 111% in series [1] and 105% in series [2] (pH 1.2, 10 µM). In addition, the remaining at 4 h, 10 µM in series [1] (setting [3]) was 87%; in series [2] (setting [4]) it was 108%.
Take `CC[C@H](C)[C@@H]1NC(=O)[C@@H]2CCCCNC(=O)CC[C@@H](C(=O)N[C@@H](CCN)C(=O)N[C@@H](Cc3cccnc3)C(=O)NC)NC(=O)[C@](C)(CC(C)C)NC(=O)[C@H](Cc3ccc4ccccc4c3)NC(=O)[C@H](Cc3ccc(OCCN)cc3)NC(=O)[C@H](CCC(=O)N2C)NC(=O)[C@H](CCC(N)=O)NC(=O)[C@H](Cc2c[nH]c3ccccc23)NC(=O)[C@H](C(C)C)NC1=O` [Compound 75, [N-Me-Lys](1c)(6c)^†IVWQE(6c)[Y(2-aminoethoxy)][2-Nal][2-Me-Leu]E(1c)[Dab][3-(3-Pyridyl)-Ala]-[NHMe]]: the IC50 against human IL-23R was found to be 0.017 nM. Besides, the Emax on human IL-23R was found to be 101%. Besides, the remaining at 1 h, 10 µM in series [1] was 96%; in series [2] (pH 1.2, 10 µM), 102%. For the same compound, the remaining at 4 h, 10 µM in series [1] (setting [3]) was 79%; in series [2] (setting [4]), 92%.
For the compound `CC[C@H](C)[C@@H]1NC(=O)[C@@H]2CCCCNC(=O)CC[C@@H](C(=O)N3CCNC3C(=O)N[C@@H](Cc3cccnc3)C(=O)NC)NC(=O)[C@](C)(CC(C)C)NC(=O)[C@H](Cc3ccc4ccccc4c3)NC(=O)[C@H](Cc3ccc(OCCN)cc3)NC(=O)[C@H](CCC(=O)N2)NC(=O)[C@H](CCC(N)=O)NC(=O)[C@H](Cc2c[nH]c3ccccc23)NC(=O)[C@H](C(C)C)NC1=O` (stereo partly drawn) [Compound 72, K(1c)(6c)^†IVWQE(6c)[Y(2-aminoethoxy)][2-Nal][2-Me-Leu]E(1c)[(R,S)-Imidazolidin-2-carbonyl][3-(3-Pyridyl)-Ala]-[NHMe]], 99 nM corresponded to half-maximal inhibition on human IL-23R (IC50). At human IL-23R, the Emax amounted to 97%. Also, the “SIF (% remaining 4 h)” value in series [1] was 110%. Besides, the remaining at 1 h, 10 µM in series [1] is 102%; in series [2] (pH 1.2, 10 µM), 94%. Further, the figures for the remaining at 4 h, 10 µM in series [1] (setting [5]) and in series [2] (setting [4]) were 110% and 107%, respectively.
`CC[C@H](C)[C@@H]1NC(=O)[C@@H]2CCCCNC(=O)CC[C@@H](C(=O)N[C@@H](CCN)C(=O)N[C@@H](Cc3cccnc3)C(=O)NC)NC(=O)CNC(=O)[C@H](Cc3ccc4ccccc4c3)NC(=O)[C@H](Cc3ccc(OCCN)cc3)NC(=O)[C@H](CCC(=O)N2)NC(=O)[C@H](CCC(N)=O)NC(=O)[C@H](Cc2c[nH]c3ccccc23)NC(=O)[C@H](C(C)C)NC1=O` [Compound 68, K(1c)(6c)^†IVWQE(6c)[Y(2-aminoethoxy)][2-Nal]GE(1c)[Dab][3-(3-Pyridyl)-Ala]-[NHMe]]: at human IL-23R, the IC50 stood at 0.072 nM and the Emax stood at 99%. For the same compound, in series [1], the “SIF (% remaining 4 h)” value is 0% and the remaining at 1 h, 10 µM was 33%. Moreover, in series [1] (setting [5]), the remaining at 4 h, 10 µM was 0%. The “SGF (% remaining 4 h)” value in series [2] (10 µM, pH 1.2, 4 h) was 95%. In addition, the remaining at 1 h, 10 µM in series [2] (pH 1.2, 10 µM) is 91%. The remaining at 4 h, 10 µM in series [2] (pH 1.2, SAR tables, % peptide remaining, 10 µM, pH 1.2, 4 h, read-out: SGF (% after 4 h)) is 95%.
`CNC(=O)[C@H](Cc1cccnc1)NC(=O)[C@H](CCN)NC(=O)[C@@H]1CCC(=O)NCCCC[C@@H]2NC(=O)CC[C@H](NC(=O)[C@H](CCC(N)=O)NC(=O)[C@H](Cc3c[nH]c4ccccc34)NC(=O)CCNC2=O)C(=O)N[C@@H](Cc2cccnc2)C(=O)N[C@@H](Cc2ccc3ccccc3c2)C(=O)N[C@@](C)(CC(C)C)C(=O)N1` [Compound 83, K(1c)(6c)^†[3-Aminopropanoyl]WQE(6c)[3-(3-Pyridyl)-Ala][2-Nal][2-Me-Leu]E(1c)[Dab][3-(3-Pyridyl)-Ala]-[NHMe]] returned a half-inhibitory concentration (IC50) against human IL-23R of 0.38 nM. In addition, at human IL-23R, the Emax amounted to 101%. Moreover, the remaining at 1 h, 10 µM in series [1] was 94%; in series [2] (pH 1.2, 10 µM), 106%. For the same compound, the remaining at 4 h, 10 µM in series [1] (setting [3]) is 86%; in series [2] (setting [4]), 97%.
Regarding `CNC(=O)[C@H](Cc1cccnc1)NC(=O)[C@H](CCN)NC(=O)[C@@H]1CCC(=O)NCCCC[C@@H]2NC(=O)CC[C@H](NC(=O)[C@H](CCC(N)=O)NC(=O)[C@H](Cc3c[nH]c4ccccc34)NC(=O)CCNC2=O)C(=O)N[C@@H](Cc2ccccn2)C(=O)N[C@@H](Cc2ccc3ccccc3c2)C(=O)N[C@@](C)(CC(C)C)C(=O)N1` [Compound 84, K(1c)(6c)^†[3-Aminopropanoyl]WQE(6c)[3-(2-Pyridyl)-Ala][2-Nal][2-Me-Leu]E(1c)[Dab][3-(3-Pyridyl)-Ala]-[NHMe]], it took 0.11 nM to reach half-maximal inhibition on human IL-23R (IC50). The Emax on human IL-23R was found to be 97%. Further, the remaining at 1 h, 10 µM was 92% in series [1] and 107% in series [2] (pH 1.2, 10 µM). The remaining at 4 h, 10 µM is 82% in series [1] (setting [3]) and 103% in series [2] (setting [4]).
In the case of `CNC(=O)[C@H](Cc1cccnc1)NC(=O)[C@H](CCN)NC(=O)[C@@H]1CCC(=O)NCCCC[C@H]2C(=O)NCCC(=O)N[C@@H](Cc3c[nH]c4ccccc34)C(=O)N[C@@H](CCC(N)=O)C(=O)N[C@@H](CCC(=O)N2C)C(=O)N[C@@H](Cc2ccc(OCCN)cc2)C(=O)N[C@@H](Cc2ccc3ccccc3c2)C(=O)N[C@@](C)(CC(C)C)C(=O)N1` [Compound 80, [N-Me-Lys](1c)(6c)^†[3-Aminopropanoyl]WQE(6c)[Y(2-aminoethoxy)][2-Nal][2-Me-Leu]E(1c)[Dab][3-(3-Pyridyl)-Ala]-[NHMe]] ([NMeK][βAla]WQE[AEF][2Nal][αMeL]E[Dab][3Pal]-NHMe; lactam 1-9, N-5), half-maximal inhibition on human IL-23R (IC50) required 0.017 nM. The Emax at human IL-23R amounted to 102%. Also, the remaining at 1 h, 10 µM is 116% in series [1] and 107% in series [2] (pH 1.2, 10 µM). The values for the remaining at 4 h, 10 µM in series [1] (setting [3]) and in series [2] (setting [4]) were 89% and 104%, respectively.
